# In patent US20210283091A1, “DECREASING IMMUNE ACTIVITY THROUGH MODULATION OF POSTCELLULAR SIGNALING FACTORS” (FLAGSHIP PIONEERING INNOVATIONS V, INC., priority 2018, published 2021):
# Legend:
# [1] = tested on: Caki-1 renal cell carcinoma cells; assay: Viability of Caki-1 renal cell carcinoma cells treated with ferroptosis inducer, with or without Ferrostatin-1; type: cell-based
# NFKB [2] = assay: NFKB reporter activity in THP1-Dual monocytes co-cultured with treated Caki-1 cells; type: cell-based, human
# Protocol: Caki-1 renal cell carcinoma cells were treated with either control (DMSO) or various doses of Erastin, for 24 hours prior to co-culture with THP1-Dual cells for an additional 24 hours. Erastin was purchased from Selleckchem (Houston, Tex.) and dissolved in DMSO. Subsequently, the THP1 supernatants were assessed for NFKB or IRF reporter activity. Caki-1 cells were acquired from ATCC and THP1-Dual cells acquired from InvivoGen (San Diego, Calif.). Both cell types were cultured in 96-well plates for the duration of the assay. 7.500 Caki-1 cells were plated 24 hours prior to dosing with Erastin, with a final DMSO concentration of 0.5%. 24 hours post-treatment, THP1-Dual cells (25,000 cells/well) were added to the Caki-1 cells. 24 hours later, 30 μl of supernatant was mixed with either 200 μl QuantiBlue (InvivoGen) or 50 μl QuantiLuc and absorbance or luminescence was recorded on a Molecular Devices plate reader. Caki-1 renal cell carcinoma cells were treated with either control (DMSO) or various doses of RSL3, for 24 hours prior to co-culture with THP1-Dual cells for an additional 24 hours. RSL3 was purchased from Selleckchem and dissolved in DMSO. Subsequently, the THP1 supernatants were assessed for NFKB or IRF reporter activity. Caki-1 cells were acquired from ATCC and THP1-Dual cells acquired from InvivoGen (San Diego, Calif.). Both cell types were cultured in 96-well plates for the duration of the assay. 7.500 Caki-1 cells were plated 24 hours prior to dosing with […], with a final DMSO concentration of 0.5%. 24 hours post-treatment, THP1-Dual cells (25,000 cells/well) were added to the Caki-1 cells. 24 hours later, 30 μl of supernatant was mixed with either 200 μl QuantiBlue (InvivoGen, San Diego, Calif.) or 50 μl QuantiFuc and absorbance or luminescence was recorded on a Molecular Devices plate reader. […] Subsequently, the THP1 supernatant was assessed for NFKB reporter activity. […]
# [3] = tested on: A20 B-cell leukemia cells; assay: Viability of A20 cells treated with GPX4 inhibitor, with or without Ferrostatin-1; type: cell-based; conditions: for viability of A20 cells: various doses, 24 hours treatment
# NFKB [4] = assay: NFKB reporter activity in THP1-Dual monocytes co-cultured with treated A20 cells; type: cell-based, human; conditions: for NFKB signaling in THP1 monocytes: A20 cells treated 24 hours, then co-culture with THP1-Dual cells 24 hours
# Protocol: A20 B-cell leukemia cells were treated with either control (DMSO) or various doses of RSL3, for 24 hours prior to co-culture with THP1-Dual cells for an additional 24 hours. RSL3 was purchased from Selleckchem (Houston, Tex.) and dissolved in DMSO. Subsequently, the THP1 supernatants were assessed for NFKB or IRF reporter activity.
# A20 cells were acquired from ATCC and THP1-Dual cells acquired from InvivoGen (San Diego, Calif.). Both cell types were cultured in 96-well plates for the duration of the assay. 50,000 A20 cells were plated 24 hours prior to dosing with RSL3, with a final DMSO concentration of 0.5%. 24 hours post-treatment, THP1-Dual cells (25,000 cells/well) were added to the A20 cells. 24 hours later, 30 μl of supernatant was mixed with either 200 μl QuantiBlue (InvivoGen, San Diego, Calif.) or 50 μl QuantiLuc and absorbance or luminescence was recorded on a Molecular Devices plate reader.
# A20 lymphoma cells were treated with various doses (e.g. 0.002, 0.005, 0.014, 0.041, 0.123, 0.370, 1.111, 3.333 and 10 μM) of a GPX4 inhibitor (RSL3, ML162 or ML210) in the presence or absence of 1 μM Ferrostatin-1 for 24 hours. ML162 was purchased from Cayman Chemical Company Inc and resuspended in DMSO. ML210 was purchased from Sigma-Aldrich and resuspended in DMSO. A20 lymphoma cells were also treated with DMSO as a negative control. After treatment with DMSO or a GPX4 inhibitor for 24 hours, the A20 lymphoma cells were co-cultured with THP1-Dual cells for an additional 24 hours. Subsequently, the THP1 supernatant was assessed for NFKB reporter activity. A20 cells were acquired from ATCC and THP1-Dual cells were acquired from InvivoGen (San Diego, Calif.). Both cell types were cultured in 96-well plates for the duration of the assay.
# C57/B6 mice = assay: Dextran sodium sulfate colitis in mice; type: in vivo; conditions: 10 mg/kg, i.p., 3-4% dextran sodium sulfate 5 days, compared to vehicle
# Protocol: C57/B6 mice are treated with vehicle or Ferrostatin (10 mg/kg, i.p) before the induction of colitis by administration of 3-4% dextran sodium sulfate in the drinking water for 5 days. An anti-inflammatory effect of ferrostatin compared to vehicle is confirmed by […], decreased diarrhea, and decreased weight loss. In addition, inhibition of neutrophil recruitment (innate immune response) by ferrostatin in confirmed by decreased myeloperoxidase activity in the colon (compared to vehicle).
# [5] = tested on: HT1080 fibrosarcoma cells; assay: Viability of HT1080 fibrosarcoma cells treated with ferroptosis inducer, with or without ferroptosis inhibitor or siRNA; type: cell-based; conditions: various doses, 24 hours treatment
# NFKB [6] = assay: NFKB reporter activity in THP1-Dual monocytes co-cultured with treated HT1080 cells; type: cell-based, human; conditions: HT1080 cells treated 24 hours, then co-culture with THP1-Dual cells 24 hours
# Protocol: HT1080 fibrosarcoma cells were treated with either control (DMSO) or various doses of Erastin, piperazine erastin (PE), or imidazole ketoerastin (IKE) for 24 hours prior to co-culture with THP1-Dual cells for an additional 24 hours. Erastin was purchased from Selleckchem (Houston, Tex.) and dissolved in DMSO. Subsequently, the THP1 supernatants were assessed for nuclear factor kappa-light-chain-enhancer of activated B cells (NFKB) or interferon regulatory factor (IRF) reporter activity.
# HT1080 cells were acquired from ATCC and THP1-Dual cells were acquired from InvivoGen (San Diego, Calif.). […] 24 hours later, 30 μl of supernatant was mixed with either 200 μl QuantiBlue (InvivoGen, San Diego, Calif.) (for NFKB reporter activity) or 50 μl QuantiLuc (for IRF reporter activity) and absorbance or luminescence was recorded on a Molecular Devices plate reader.
# HT1080 fibrosarcoma cells were treated with various doses of Erastin (e.g. 0.8, 0.16, 0.31, 0.63, 1.25, 2.5, 5, 10 or 20 μM) alone or in combination with a ferroptosis inhibitor (1 μM Ferrostatin-1, 1 μM Liproxstatin-1, 100 μM Trolox, 25 μM β-Mercaptoethanol or 100 μM Deferoxamine) for 24 hours prior to co-culture with THP1-Dual cells for an additional 24 hours. […] Subsequently, the THP1 supernatant was assessed for NFKB activity. […]
compound,measurement,setting,value
CCOC(=O)c1ccc(NC2CCCCC2)c(N)c1 [Ferrostatin-1],effect on viability of Caki-1 renal carcinoma cells decreased by GPX4 inhibitor (RSL3 or ML162),"[1]; 1 μM Ferrostatin, 24 hours",attenuated
same,effect on NFKB activity in THP1 cells increased by RSL3- or ML162-treated Caki-1 cells,NFKB [2]; 1 μM Ferrostatin,attenuated
same,"effect on viability of A20 lymphoma cells decreased by GPX4 inhibitor (RSL3, ML162 or ML210)","[3]; 1 μM Ferrostatin-1, 24 hours",attenuated
same,effect on NFKB activity in THP1 cells increased by GPX4 inhibitor-treated A20 lymphoma cells,NFKB [4]; 1 μM Ferrostatin-1,attenuated
same,colon length,C57/B6 mice,decreased
same,diarrhea,C57/B6 mice,decreased
same,myeloperoxidase activity in the colon,C57/B6 mice,decreased
same,weight loss,C57/B6 mice,decreased
"CC(C)Oc1ccc(C(=O)Cn2ccnc2)cc1-n1c(CN2CCN(C(=O)COc3ccc(Cl)cc3)CC2)nc2ccccc2c1=O [IKE, imidazole ketoerastin]",viability of HT1080 cells,[5],negatively affected the viability
same,NFKB signaling in THP1 monocytes,NFKB [6],elicited NFKB signaling
COc1ccc(N(C(=O)CCl)C(C(=O)NCCc2ccccc2)c2cccs2)cc1Cl (stereo not drawn) [ML162],viability of Caki-1 cells,"[1]; various doses, 24 hours treatment",decreased viability of the cells in a dose dependent manner
same,NFKB signaling in THP1 monocytes,"NFKB [2]; Caki-1 cells treated 24 hours, then co-culture with THP1-Dual cells 24 hours",increased NFKB activity in THP1 cells in a dose dependent manner
same,viability of A20 cells,[3],decreased viability of the cells in a dose dependent manner
same,NFKB signaling in THP1 monocytes,NFKB [4],increased NFKB activity in THP1 cells in a dose dependent manner
Cc1onc(C(=O)N2CCN(C(c3ccc(Cl)cc3)c3ccc(Cl)cc3)CC2)c1[N+](=O)[O-] [ML210],viability of A20 cells,[3],decreased viability of the cells in a dose dependent manner
same,NFKB signaling in THP1 monocytes,NFKB [4],increased NFKB activity in THP1 cells in a dose dependent manner
"CC(C)Oc1ccc(CN2CCNCC2)cc1-n1c(CN2CCN(C(=O)COc3ccc(Cl)cc3)CC2)nc2ccccc2c1=O [PE, piperazine erastin]",viability of HT1080 cells,[5],negatively affected the viability
same,NFKB signaling in THP1 monocytes,NFKB [6],elicited NFKB signaling
